Reference: patent US5244916A, “Inhibition of respiratory burst using posttranslational modification inhibitors” (The Scripps Research Institute, priority 1992, dated 1993)

Legend:
[1] = system: peripheral blood neutrophils; experiment: Respiratory burst of peripheral blood neutrophils in response to FMLP after short-term compactin; type: cell-based; conditions: 10 μM, up to two hours
[2] = HL-60 cell viability by propidium iodide uptake (flow cytometry); conditions: human, hl-60 cells
Procedure: (§1) HL-60 cells were maintained in stationary culture in RPMI 1640 medium (Gibco, Grand Island, NY) containing 10% fetal bovine serum at 37° C in an atmosphere of 95 air and 5% CO2. The cells (about 8×10^5 /ml) were differentiated into neutrophil-like cells by treatment with 1.3% DMSO for six days (Harris, et al., J. Leukocyte Biol. 37: 407-422 (1985)). […] […] In studies of the protective effect of mevalonic acid, the compound was added as the mevalonolactone (Sigma Chemical Co., St. Louis, MO) at a concentration of 1 mM to the cell culture on days 4 to 6. Similarly, cholesterol was added in the form of LDL prepared according to the method of Curtiss and Edgington (Curtiss, et al., J. Biol. Chem. 257: 15213-15221 (1991)) at a final concentration of 50 μg/ml; ubiquinone (Sigma Chemical Co., St. Louis, MO) was added as Coenzyme Q-10 at a final concentration of 0.5 mM; and dolichol (Sigma Chemical Co., St. Louis, MO) was added as a dispersion in phosphatidylcholine at a final concentration of 0.5 mM (Cutts, et al., J. Cell Physiol. 139: 550-555 (1989)).
(§2) Cell viability was determined by uptake of propidium iodide (537-059; Calbiochem-Behring Corp., La Jolla, CA), detected from the emission fluorescence at 625/35 nm using a DM560 dichronic mirror (Krishan, J. Cell. Biol. 66: 188-192 (1975)). Expression of N-formyl peptide receptor was determined using fluorescein-labeled N-CHONle-Leu-Phe-Nle-Tyr-Lys (Molecular Probes, Inc., Eugene, OR) essentially by the method of Sklar and Finney (Sklar and Finney, Cytometry 3: 161-165 (1982)). Specificity of ligand binding was determined in the presence of 4 mM unlabeled T-boc peptide. CD14 expression was determined using monoclonal antibody 3C10 at a dilution of 1:1,000 (see Goyert and Ferrero, in Leucocyte Typing III: White Cell Differentiation Antigens, McMichael, ed., Oxford Univ. Press, NY, pp. 613-619 (1988)), with detection using a fluorescein-labeled secondary antibody. Flow cytometric analyses were performed on a FACSIV (registered trademark of Becton-Dickinson, San Jose, CA) equipped with a 2W argon laser (Coherent Inc., Palo Alto, collected in list mode and analyzed using the Consort 30 program (Becton-Dickinson, San Jose, CA) after collecting 10,000 events.

[3] = system: HL-60 cells; experiment: as above
Procedure: as §1, §2

[4] = system: CD14 antigen; experiment: HL-60 differentiation: CD14 antigen expression (flow cytometry); type: cell-based; conditions: compactin-treated cells
Procedure: HL-60 cells were maintained in stationary culture in RPMI 1640 medium (Gibco, Grand Island, NY) containing 10% fetal bovine serum at 37° C in an atmosphere of 95 air and 5% CO2. The cells (about 8×10^5 /ml) were differentiated into neutrophil-like cells by treatment with 1.3% DMSO for six days (Harris, et al., J. Leukocyte Biol. 37: 407-422 (1985)). The cells were treated with the indicated levels of compactin or lovastatin by addition of a 1,000-fold concentrated stock solution to the appropriate concentration on day 4 of differentiation. […]
Cell viability was determined by uptake of propidium iodide (537-059; Calbiochem-Behring Corp., La Jolla, CA), detected from the emission fluorescence at 625/35 nm using a DM560 dichronic mirror (Krishan, J. Cell. Biol. 66: 188-192 (1975)). Expression of N-formyl peptide receptor was determined using fluorescein-labeled N-CHONle-Leu-Phe-Nle-Tyr-Lys (Molecular Probes, Inc., Eugene, OR) essentially by the method of Sklar and Finney (Sklar and Finney, Cytometry 3: 161-165 (1982)). Specificity of ligand binding was determined in the presence of 4 mM unlabeled T-boc peptide. […]
HL-60 differentiation was assessed using two distinct markers: appearance of N-formyl peptide receptors and appearance of the CD14 antigen.

[5] = system: Rap1; experiment: Western blot of Rap1 in membrane and cytosol fractions of HL-60 cells; type: cell-based; conditions: 10 μM compactin
Procedure: Western blots were performed as described in Bokoch, et al., Cell Biol. 106: 1927-1936 (1988).
The ability of the concentrations of compactin used to inhibit endogenous HL-60 cell LMWG isoprenylation was assessed. Inhibition of Rapl isoprenylation was determined in two ways. Western blotting was used to evaluate the presence of Rap1 in cytosol or membrane fractions of compactin-treated vs. untreated cells (see FIG. 1). […] HL-60 cells were treated with ±10 μM compactin, and membrane and cytosol fractions were prepared as described in Example 1. Equal amounts of membrane protein (100 μg) and cytosol protein (70 μg), respectively,were loaded in each lane. Total membrane protein obtained in this experiment from about 3×10^8 cells was about 3 mg and cytosolic protein was about 2 mg. The samples were analyzed on 15% SDS-polyacrylamide gels (SDS-PAGE), transferred to nitrocellulose, and blotted with specific anti-Rapl antibody, R61, at 1:500 dilution. Detection was with ^125 I-goat anti-rabbit IgG and autoradiograms were exposed for 24-36 hours with intensifying screen at -70° C.

[6] = system: NADPH oxidase; experiment: Cell-free oxidase system with compactin included in the assay cuvette; type: biochemical; conditions: 10 μM compactin in the assay cuvette
Procedure: To assess O2 --formation using HL-60 membrane and cytosol, the cell-free system of Curnutte, et al. (Curnutte, et al., J. Biol. Chem. 262: 5563-5569 (1987); Curnutte, et al.,m J. Biol. Chem. 262: 6450-6452 (1987)) was utilized. Briefly, HL-60 membrane pellet (50-60μg) or human neutrophil membrane (6.35×10^6 cell equivalents) was added to a cuvette containing 100 μM cytochrome c (type III, Sigma Chemical Co., St. Louis, MO), 6.25 mM MgCl2, 93 mM KCl, 2.8 mM NaCl, 9.3 mM Pipes pH 7.3, 0.8mM ATP, 0.16 mM NADPH, 10 μM GTPgammaS, 225 μg HL-60 cytosol, or 250 μg ([…]; cell equivalents) of human neutrophil cytosol and ±300μg/ml SOD (Sigma Chemical Co., St. Louis, MO). After a three-minute equilibration at 25° C., the formation of O2 --was initiated by the addition of 100 μM SDS. O2 --generation was monitored continuously as the SOD-sensitive reduction of cytochrome c at 550 nm. Human neutrophil plasma membranes (gamma-GSP) and cytosol (GSS) were prepared as described in (Curnutte, et al., suora (1987)).
Treatment of peripheral blood neutrophils with 10 μM compactin for up to two hours produced no effect upon the ability of these cells to support a respiratory burst in response to FMLP. […] It seems unlikely that both compounds would randomly produce similar nonspecific toxic effects on the NADPH oxidase.

In the case of `CC[C@H](C)C(=O)O[C@H]1CCC=C2C=C[C@H](C)[C@H](CC[C@@H]3C[C@@H](O)CC(=O)O3)[C@H]21` [compactin], the “effect on respiratory burst of peripheral blood neutrophils” value [1] is reported as “no effect”, the viability at 0.4 µM [2] is reported as 100 ± 1.6% and the viability at 2 µM [2] is reported as 95 ± 1.2%. For the same compound, the viability at 4 µM [2] was 97 ± 0.9%, the viability at 10 µM [2] was 96 ± 1.2% and the HL-60 cell viability ([3]; compactin treatment, concentrations of the studies) was “not affected”. For the same compound, the “cell viability when inhibitor added at day 1 of differentiation” value ([3]; higher concentrations of each drug) was “somewhat decreased”, the CD14 expression [4] was “normal” and the “Rap1 membrane association after treatment” value [5] was “a portion of this GTP-binding protein was still membrane associated”. The “appearance of Rap1 in the cytosolic fraction” value [5] was “large amounts”, the “total Rap1 previously associated with the membrane pellet now soluble” value ([5]; densitometry, n=3) was 60-70% and the “inhibition of O2- formation, cell-free” value [6] was “did not inhibit”.
